{"source": "patent US20070117743A1", "about": "“New antitumoral compounds” (priority 2003, published 2007)", "assay_type_in_all_cases": "cell-based, human", "key": {"A-549": {"test_system": "A-549", "assay": "SRB colorimetric assay of cell growth and viability, A-549", "conditions": "48 hours exposure; for GI50: read-out: GI50 A-549; for CC50: read-out: LC50 A-549"}, "SK-MEL-28": {"test_system": "SK-MEL-28", "assay": "SRB colorimetric assay of cell growth and viability, SK-MEL-28", "conditions": "48 hours exposure; for CC50: read-out: LC50 MEL-28"}, "HT-29": {"test_system": "HT-29", "assay": "SRB colorimetric assay of cell growth and viability, HT-29", "conditions": "48 hours exposure; for GI50: read-out: GI50 HT-29; for CC50: read-out: LC50 HT-29"}, "LoVo": {"test_system": "LoVo", "assay": "SRB colorimetric assay of cell growth and viability, LoVo", "conditions": "48 hours exposure; for CC50: read-out: LC50 LOVO"}, "LoVo-Dox": {"test_system": "LoVo-Dox", "assay": "SRB colorimetric assay of cell growth and viability, LoVo-Dox", "conditions": "48 hours exposure; for CC50: read-out: LC50 LOVO-DOX", "method_in_brief": "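Optical density at 490 nm of solubilized SRB, from triplicate wells, yields GI, TGI and LC values. Before staining, cells are fixed for 60 minutes at 4° C in cold TCA after a 48-hour exposure.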"}, "DU-145": {"test_system": "DU-145", "assay": "SRB colorimetric assay of cell growth and viability, DU-145", "conditions": "48 hours exposure"}, "IGROV-1": {"test_system": "IGROV-1", "assay": "SRB colorimetric assay of cell growth and viability, IGROV-1", "conditions": "48 hours exposure"}, "IGROV-ET": {"test_system": "IGROV-ET", "assay": "SRB colorimetric assay of cell growth and viability, IGROV-ET", "conditions": "48 hours exposure; for CC50: read-out: LC50 IGROV-ET"}, "HeLa": {"test_system": "HeLa", "assay": "SRB colorimetric assay of cell growth and viability, HeLa", "conditions": "48 hours exposure; for CC50: read-out: LC50 HELA"}, "HeLa-APL": {"test_system": "HeLa-APL", "assay": "SRB colorimetric assay of cell growth and viability, HeLa-APL", "conditions": "48 hours exposure; for CC50: read-out: LC50 HELA-APL"}, "K-562": {"test_system": "K-562", "assay": "SRB colorimetric assay of cell growth and viability, K-562", "conditions": "48 hours exposure; for CC50: read-out: LC50 K-562"}, "PANC-1": {"test_system": "PANC-1", "assay": "SRB colorimetric assay of cell growth and viability, PANC-1", "conditions": "48 hours exposure; for CC50: read-out: LC50 PANC-1"}}, "note": "Where two headings read alike, the source gives them in different places. Where a SMILES comes first, the peptide text is derived from it. Bridges are numbered along the chain shown (N, C = ends). [ ]: non-standard residue; d: D form. The star is where a group is joined. d(aIle) = CC[C@H](C)[C@@H](N)C(=O)O; d(aThr) = C[C@@H](O)[C@@H](N)C(=O)O; Hexanoyl(5-Me) = CC(C)CCCC(=O)*; Orn = NCCC[C@H](N)C(=O)O; Dhb = C/C=C(\\N)C(=O)O", "data": [{"smiles": "C/C=C1\\NC(=O)[C@H](Cc2ccccc2)NC(=O)[C@@H](C(C)C)NC(=O)[C@@H]([C@@H](C)CC)NC(=O)[C@H](NC(=O)[C@H](NC(=O)[C@H](CCCN)NC(=O)[C@H]2CCCN2C(=O)[C@H](NC(=O)[C@@H](NC(=O)[C@H](CCC(=O)O)NC(=O)CCCC(C)C)C(C)C)C(C)C)[C@@H](C)CC)[C@@H](C)OC(=O)[C@H](C(C)C)NC1=O", "note": "[Compound 56, [Glu^12, noD-Val^13]-KF] ({Hexanoyl(5-Me)}-EV[dV][dP][Orn][d(aIle)][d(aThr)][d(aIle)][dV]F[Dhb]V; ester 7-C)", "values": [{"measurement": "TGI A-549", "setting": "A-549", "result": "7.11E−06", "unit": "Molar"}, {"measurement": "GI50", "setting": "A-549", "result": 0.168, "unit": "µM"}, {"measurement": "CC50", "setting": "A-549", "result": "≥ 7.11", "unit": "µM"}, {"measurement": "GI50", "setting": "SK-MEL-28", "result": "≥ 7.11", "unit": "µM"}, {"measurement": "TGI MEL-28", "setting": "SK-MEL-28", "result": "7.11E−06", "unit": "Molar"}, {"measurement": "CC50", "setting": "SK-MEL-28", "result": "≥ 7.11", "unit": "µM"}, {"measurement": "TGI HT-29", "setting": "HT-29", "result": "7.11E−06", "unit": "Molar"}, {"measurement": "GI50", "setting": "HT-29", "result": "≥ 7.11", "unit": "µM"}, {"measurement": "CC50", "setting": "HT-29", "result": "≥ 7.11", "unit": "µM"}, {"measurement": "GI50", "setting": "LoVo", "result": 2.22, "unit": "µM"}, {"measurement": "TGI LOVO", "setting": "LoVo", "result": "7.11E−06", "unit": "Molar"}, {"measurement": "CC50", "setting": "LoVo", "result": "≥ 7.11", "unit": "µM"}, {"measurement": "GI50", "setting": "LoVo-Dox", "result": "≥ 7.11", "unit": "µM"}, {"measurement": "TGI LOVO-DOX", "setting": "LoVo-Dox", "result": "7.11E−06", "unit": "Molar"}, {"measurement": "CC50", "setting": "LoVo-Dox", "result": "≥ 7.11", "unit": "µM"}, {"measurement": "GI50", "setting": "DU-145", "result": 1.95, "unit": "µM"}, {"measurement": "LC50 (concentration causing 50% net cell kill)", "setting": "DU-145", "result": "≥ 7.11", "unit": "µM"}, {"measurement": "TGI DU-145", "setting": "DU-145", "result": "7.11E−06", "unit": "Molar"}, {"measurement": "GI50", "setting": "IGROV-1", "result": 2.78, "unit": "µM"}, {"measurement": "LC50 (concentration causing 50% net cell killing)", "setting": "IGROV-1", "result": "≥ 7.11", "unit": "µM"}, {"measurement": "TGI IGROV", "setting": "IGROV-1", "result": "7.11E−06", "unit": "Molar"}, {"measurement": "GI50", "setting": "IGROV-ET", "result": 1.39, "unit": "µM"}, {"measurement": "TGI IGROV-ET", "setting": "IGROV-ET", "result": "7.11E−06", "unit": "Molar"}, {"measurement": "CC50", "setting": "IGROV-ET", "result": "≥ 7.11", "unit": "µM"}, {"measurement": "GI50", "setting": "HeLa", "result": 0.37, "unit": "µM"}, {"measurement": "TGI HELA", "setting": "HeLa", "result": "7.11E−06", "unit": "Molar"}, {"measurement": "CC50", "setting": "HeLa", "result": "≥ 7.11", "unit": "µM"}, {"measurement": "GI50", "setting": "HeLa-APL", "result": "≥ 7.11", "unit": "µM"}, {"measurement": "TGI HELA-APL", "setting": "HeLa-APL", "result": "7.11E−06", "unit": "Molar"}, {"measurement": "CC50", "setting": "HeLa-APL", "result": "≥ 7.11", "unit": "µM"}, {"measurement": "GI50", "setting": "K-562", "result": "≥ 7.11", "unit": "µM"}, {"measurement": "TGI K-562", "setting": "K-562", "result": "7.11E−06", "unit": "Molar"}, {"measurement": "CC50", "setting": "K-562", "result": "≥ 7.11", "unit": "µM"}, {"measurement": "GI50", "setting": "PANC-1", "result": 0.118, "unit": "µM"}, {"measurement": "TGI PANC-1", "setting": "PANC-1", "result": "7.11E−06", "unit": "Molar"}, {"measurement": "CC50", "setting": "PANC-1", "result": "≥ 7.11", "unit": "µM"}]}, {"smiles": "C/C=C1\\NC(=O)[C@H](Cc2ccccc2)NC(=O)[C@@H](C(C)C)NC(=O)[C@@H]([C@@H](C)CC)NC(=O)[C@H](NC(=O)[C@H](NC(=O)[C@H](CCCN)NC(=O)[C@H]2CCCN2C(=O)[C@H](NC(=O)[C@@H](NC(=O)[C@H](CCCN)NC(=O)CCCC(C)C)C(C)C)C(C)C)[C@@H](C)CC)[C@@H](C)OC(=O)[C@H](C(C)C)NC1=O", "note": "[Compound 57, [Orn^12, noD-Val^13]-KF] ({Hexanoyl(5-Me)}-[Orn]V[dV][dP][Orn][d(aIle)][d(aThr)][d(aIle)][dV]F[Dhb]V; ester 7-C)", "values": [{"measurement": "TGI A-549", "setting": "A-549; SRB", "result": "7.18E−06", "unit": "Molar"}, {"measurement": "GI50", "setting": "A-549; SRB", "result": "≥ 7.18", "unit": "µM"}, {"measurement": "CC50", "setting": "A-549; SRB", "result": "≥ 7.18", "unit": "µM"}, {"measurement": "GI50", "setting": "SK-MEL-28", "result": "≥ 7.18", "unit": "µM"}, {"measurement": "TGI MEL-28", "setting": "SK-MEL-28", "result": "7.18E−06", "unit": "Molar"}, {"measurement": "CC50", "setting": "SK-MEL-28", "result": "≥ 7.18", "unit": "µM"}, {"measurement": "TGI HT-29", "setting": "HT-29; SRB", "result": "7.18E−06", "unit": "Molar"}, {"measurement": "GI50", "setting": "HT-29; SRB", "result": "≥ 7.18", "unit": "µM"}, {"measurement": "CC50", "setting": "HT-29; SRB", "result": "≥ 7.18", "unit": "µM"}, {"measurement": "GI50", "setting": "LoVo; SRB", "result": "≥ 7.18", "unit": "µM"}, {"measurement": "TGI LOVO", "setting": "LoVo; SRB", "result": "7.18E−06", "unit": "Molar"}, {"measurement": "CC50", "setting": "LoVo; SRB", "result": "≥ 7.18", "unit": "µM"}, {"measurement": "GI50", "setting": "LoVo-Dox; SRB", "result": "≥ 7.18", "unit": "µM"}, {"measurement": "TGI LOVO-DOX", "setting": "LoVo-Dox; SRB", "result": "7.18E−06", "unit": "Molar"}, {"measurement": "CC50", "setting": "LoVo-Dox; SRB", "result": "≥ 7.18", "unit": "µM"}, {"measurement": "GI50", "setting": "DU-145", "result": "≥ 7.18", "unit": "µM"}, {"measurement": "LC50 (concentration causing 50% net cell kill)", "setting": "DU-145", "result": "≥ 7.18", "unit": "µM"}, {"measurement": "TGI DU-145", "setting": "DU-145", "result": "7.18E−06", "unit": "Molar"}, {"measurement": "GI50", "setting": "IGROV-1", "result": "≥ 7.18", "unit": "µM"}, {"measurement": "LC50 (concentration causing 50% net cell killing)", "setting": "IGROV-1", "result": "≥ 7.18", "unit": "µM"}, {"measurement": "TGI IGROV", "setting": "IGROV-1", "result": "7.18E−06", "unit": "Molar"}, {"measurement": "GI50", "setting": "IGROV-ET", "result": "≥ 7.18", "unit": "µM"}, {"measurement": "TGI IGROV-ET", "setting": "IGROV-ET", "result": "7.18E−06", "unit": "Molar"}, {"measurement": "CC50", "setting": "IGROV-ET", "result": "≥ 7.18", "unit": "µM"}, {"measurement": "GI50", "setting": "HeLa; SRB", "result": "≥ 7.18", "unit": "µM"}, {"measurement": "TGI HELA", "setting": "HeLa; SRB", "result": "7.18E−06", "unit": "Molar"}, {"measurement": "CC50", "setting": "HeLa; SRB", "result": "≥ 7.18", "unit": "µM"}, {"measurement": "GI50", "setting": "HeLa-APL; SRB", "result": "≥ 7.18", "unit": "µM"}, {"measurement": "TGI HELA-APL", "setting": "HeLa-APL; SRB", "result": "7.18E−06", "unit": "Molar"}, {"measurement": "CC50", "setting": "HeLa-APL; SRB", "result": "≥ 7.18", "unit": "µM"}, {"measurement": "GI50", "setting": "K-562; SRB", "result": "≥ 7.18", "unit": "µM"}, {"measurement": "TGI K-562", "setting": "K-562; SRB", "result": "7.18E−06", "unit": "Molar"}, {"measurement": "CC50", "setting": "K-562; SRB", "result": "≥ 7.18", "unit": "µM"}, {"measurement": "GI50", "setting": "PANC-1; SRB", "result": 3.88, "unit": "µM"}, {"measurement": "TGI PANC-1", "setting": "PANC-1; SRB", "result": "7.18E−06", "unit": "Molar"}, {"measurement": "CC50", "setting": "PANC-1; SRB", "result": "≥ 7.18", "unit": "µM"}]}]}
